Measurements reported in PubChem BioAssay AID330 (DTP/NCI, 2004).
Values joined by “and” are separate entries in the source; they are usually repeats but may differ in a detail not shown here. Identical values can stand only once. Inconclusive results and toxic doses are left out. The calls were made as follows: active = survival T/C of 150% or more; inactive = T/C below 125% in these data.

System: P388 leukemia ip, CD2F1 mice, survival T/C
Assay: NCI In Vivo Anticancer Drug Screen. Data for tumor model P388 Leukemia (intraperitoneal) in CD2F1 (CDF1) mice
Conditions: endpoint: median survival time, higher = longer survival
How it was run: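 Mice carrying the transplanted tumor received test compound or vehicle. Survival was recorded in each group, and the value is the treated-group measurement divided by that of the vehicle-treated control group.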

[1] = dose: 50.0 mg/kg/injection, schedule: Q01DX005 (ip), vehicle: Klucel (hydroxypropylcellulose) (HPC)
[2] = dose: 100.0 mg/kg/injection, schedule: Q01DX005 (ip), vehicle: Klucel (hydroxypropylcellulose) (HPC)
[3] = dose: 200.0 mg/kg/injection, schedule: Q01DX005 (ip), vehicle: Klucel (hydroxypropylcellulose) (HPC)
[4] = dose: 100.0 mg/kg/injection, schedule: Q04DX003 (ip), vehicle: saline with Tween-80
[5] = dose: 100.0 mg/kg/injection, schedule: Q04DX003 (ip), vehicle: saline
[6] = dose: 200.0 mg/kg/injection, schedule: Q04DX003 (ip), vehicle: saline with Tween-80
[7] = dose: 200.0 mg/kg/injection, schedule: Q04DX003 (ip), vehicle: saline
[8] = dose: 400.0 mg/kg/injection, schedule: Q04DX003 (ip), vehicle: saline
[9] = dose: 50.0 mg/kg/injection, schedule: Q01DX005 (ip), vehicle: saline with Tween-80
[10] = dose: 50.0 mg/kg/injection, schedule: Q01DX009 (ip), vehicle: Klucel (hydroxypropylcellulose) (HPC)
[11] = dose: 200.0 mg/kg/injection, schedule: Q01DX009 (ip), vehicle: Klucel (hydroxypropylcellulose) (HPC)
[12] = dose: 60.0 mg/kg/injection, schedule: Q01DX005 (ip), vehicle: saline with Tween-80
[13] = dose: 120.0 mg/kg/injection, schedule: Q01DX005 (ip), vehicle: saline with Tween-80
[14] = dose: 50.0 mg/kg/injection, schedule: Q01DX009 (ip), vehicle: saline with Tween-80
[15] = dose: 100.0 mg/kg/injection, schedule: Q01DX009 (ip), vehicle: saline with Tween-80

Measured: T/C

COC(=O)[C@@]12OC[C@]34[C@H]([C@@H](O)[C@@H]1O)[C@@]1(C)CC(=O)C(O)=C(C)[C@@H]1C[C@H]3OC(=O)[C@H](OC(=O)C(N)Cc1ccccc1)[C@@H]24 (stereo partly specified)
inactive: dose: 0.5 mg/kg/injection, schedule: Q01DX005 (ip), vehicle: Klucel (hydroxypropylcellulose) (HPC) 107 % of control | dose: 1.0 mg/kg/injection, schedule: Q01DX005 (ip), vehicle: Klucel (hydroxypropylcellulose) (HPC) 103 % of control and 107 % of control | dose: 2.0 mg/kg/injection, schedule: Q01DX005 (ip), vehicle: Klucel (hydroxypropylcellulose) (HPC) 108 % of control and 119 % of control | dose: 4.0 mg/kg/injection, schedule: Q01DX005 (ip), vehicle: Klucel (hydroxypropylcellulose) (HPC) 112 % of control | dose: 8.0 mg/kg/injection, schedule: Q01DX005 (ip), vehicle: Klucel (hydroxypropylcellulose) (HPC) 110 % of control | dose: 125.0 micrograms/kg/injection, schedule: Q01DX005 (ip), vehicle: Klucel (hydroxypropylcellulose) (HPC) 96 % of control | dose: 250.0 micrograms/kg/injection, schedule: Q01DX005 (ip), vehicle: Klucel (hydroxypropylcellulose) (HPC) 107 % of control | dose: 500.0 micrograms/kg/injection, schedule: Q01DX005 (ip), vehicle: Klucel (hydroxypropylcellulose) (HPC) 98 % of control | dose: 1000.0 micrograms/kg/injection, schedule: Q01DX005 (ip), vehicle: Klucel (hydroxypropylcellulose) (HPC) 107 % of control

COC(=O)C(O)C1OC(COCc2ccccc2)C(OCc2ccccc2)C1OCc1ccccc1 (stereo unspecified)
inactive: dose: 12.5 mg/kg/injection, schedule: Q01DX009 (ip), vehicle: distilled water + alcohol 100 % of control | dose: 25.0 mg/kg/injection, schedule: Q01DX009 (ip), vehicle: distilled water + alcohol 100 % of control | dose: 50.0 mg/kg/injection, schedule: Q01DX009 (ip), vehicle: distilled water + alcohol 103 % of control | dose: 100.0 mg/kg/injection, schedule: Q01DX009 (ip), vehicle: distilled water + alcohol 100 % of control | dose: 200.0 mg/kg/injection, schedule: Q01DX009 (ip), vehicle: distilled water + alcohol 112 % of control

CCC1(C)C(=O)SC(=S)N1C (stereo unspecified)
inactive: [1] 101 % of control | [2] 97 % of control | [3] 103 % of control

COC1C(O)=C2C(=O)OC(C)(O)/C=C/C=C\C=C/C=C/C(c3ccccc3)NC(=O)/C=C/C=C/C=C/C=C/C2(C)C1O (stereo unspecified)
inactive: dose: 12.5 mg/kg/injection, schedule: Q01DX009 (ip), vehicle: Klucel (hydroxypropylcellulose) (HPC) 103 % of control and 86 % of control

O=C(O)C1CCCN1C(=O)c1ccc(Cl)cc1 (stereo unspecified)
inactive: dose: 12.5 mg/kg/injection, schedule: Q01DX005 (ip), vehicle: distilled water + Tween-80 99 % of control | dose: 25.0 mg/kg/injection, schedule: Q01DX005 (ip), vehicle: distilled water + Tween-80 101 % of control | dose: 50.0 mg/kg/injection, schedule: Q01DX005 (ip), vehicle: distilled water + Tween-80 97 % of control | dose: 100.0 mg/kg/injection, schedule: Q01DX005 (ip), vehicle: distilled water + Tween-80 100 % of control | dose: 200.0 mg/kg/injection, schedule: Q01DX005 (ip), vehicle: distilled water + Tween-80 104 % of control

C=CC(C)(CCC=C(C)C)ON(C)C (stereo unspecified)
inactive: dose: 100.0 mg/kg/injection, schedule: Q04DX002 (ip), vehicle: saline with Tween-80 100 % of control

Cc1ccc(N2CCN(CCCC3(c4ccccc4)OCCO3)CC2C)cc1Cl (stereo unspecified)
inactive: dose: 50.0 mg/kg/injection, schedule: Q04DX003 (ip), vehicle: saline 106 % of control and 97 % of control | [4] 107 % of control | [5] 100 % of control and 95 % of control | [6] 117 % of control | [7] 107 % of control and 97 % of control | [8] 107 % of control and 97 % of control

O=C1CCCC2=C1CC1=C(CCCC1=O)N2
inactive: [1] 94 % of control | [2] 96 % of control | [3] 90 % of control

Cc1cc(NN)nc2n[nH]c(N)c12
inactive: dose: 12.5 mg/kg/injection, schedule: Q01DX005 (ip), vehicle: saline with Tween-80 105 % of control | dose: 25.0 mg/kg/injection, schedule: Q01DX005 (ip), vehicle: saline with Tween-80 97 % of control | [9] 102 % of control and 112 % of control

NC(=O)NN(Cc1ccc2c(c1)OCO2)N=O
inactive: [10] 99 % of control | dose: 100.0 mg/kg/injection, schedule: Q01DX009 (ip), vehicle: Klucel (hydroxypropylcellulose) (HPC) 107 % of control | [11] 91 % of control

COCCOCOC(C)(C)CCCCl
inactive: [12] 106 % of control | [13] 101 % of control | dose: 240.0 mg/kg/injection, schedule: Q01DX005 (ip), vehicle: saline with Tween-80 100 % of control

COC(=O)/C=C1\C(=O)OCC1(C)C
inactive: [5] 100 % of control | [7] 104 % of control | [8] 103 % of control

CN1CCCc2cc(/C=C\c3ccnc4ccccc34)ccc21
inactive: dose: 25.0 mg/kg/injection, schedule: Q01DX009 (ip), vehicle: Klucel (hydroxypropylcellulose) (HPC) 93 % of control | [10] 104 % of control | [11] 118 % of control

N=C1C(O)=CC(=O)C(O)=C1C(=O)O
inactive: dose: 60.0 mg/kg/injection, schedule: Q01DX005 (ip), vehicle: saline 104 % of control | dose: 120.0 mg/kg/injection, schedule: Q01DX005 (ip), vehicle: saline 103 % of control | dose: 240.0 mg/kg/injection, schedule: Q01DX005 (ip), vehicle: saline 101 % of control

CC1(C)CC(=O)C2=C(C1)CC1(C)CC(C)(C)CC2(OC(=O)Cc2ccccc2)C1 (stereo unspecified)
inactive: [1] 98 % of control | [2] 95 % of control | [3] 92 % of control

CS/C(=N\N=C(/C)c1ccccn1)N1CCN(c2ccccn2)CC1
inactive: [4] 98 % of control | [6] 99 % of control | dose: 400.0 mg/kg/injection, schedule: Q04DX003 (ip), vehicle: saline with Tween-80 96 % of control

O=C1C(=O)C(Cl)=C(Cl)C(Cl)=C1Cl
inactive: dose: 6.25 mg/kg/injection, schedule: Q01DX009 (ip), vehicle: saline with Tween-80 100 % of control and 95 % of control | dose: 12.5 mg/kg/injection, schedule: Q01DX009 (ip), vehicle: saline with Tween-80 93 % of control | dose: 25.0 mg/kg/injection, schedule: Q01DX009 (ip), vehicle: saline with Tween-80 100 % of control and 98 % of control

C[CH2][Ge]([CH2]C)[CH2]C.C[CH2][Ge]([CH2]C)[O]C(C)=O
inactive: dose: 50.0 mg/kg/injection, schedule: Q01DX009 (ip), vehicle: saline 95 % of control | dose: 100.0 mg/kg/injection, schedule: Q01DX009 (ip), vehicle: saline 98 % of control | dose: 200.0 mg/kg/injection, schedule: Q01DX009 (ip), vehicle: saline 96 % of control

CCN(CC)C(=O)NCCCCCCNC(=O)N(CC)CC
inactive: dose: 15.0 mg/kg/injection, schedule: Q01DX005 (ip), vehicle: saline with Tween-80 103 % of control | dose: 30.0 mg/kg/injection, schedule: Q01DX005 (ip), vehicle: saline with Tween-80 98 % of control and 104 % of control | [12] 98 % of control and 100 % of control and 94 % of control | [13] 87 % of control

C[Si](C)(C)C#CC(OS(=O)(=O)C(F)(F)F)=C(c1ccccc1)c1ccccc1
inactive: [9] 98 % of control | dose: 100.0 mg/kg/injection, schedule: Q01DX005 (ip), vehicle: saline with Tween-80 99 % of control | dose: 200.0 mg/kg/injection, schedule: Q01DX005 (ip), vehicle: saline with Tween-80 92 % of control

Fc1ccc2[nH]c3c(c2c1)-c1ncncc1CC3
inactive: [1] 101 % of control | [2] 100 % of control | [3] 101 % of control

CC1(C)OCC(C2OC3OC(C)(C)OC3C2OP(=O)(N2CC2)N2CC2)O1 (stereo unspecified)
inactive: [14] 112 % of control | [15] 105 % of control

CC1(O)Cn2c(=O)c3cc4ccccc4cc3c(=O)n2CC1(C)Br (stereo unspecified)
inactive: dose: 50.0 mg/kg/injection, schedule: Q04DX002 (ip), vehicle: DMSO 105 % of control | dose: 100.0 mg/kg/injection, schedule: Q04DX002 (ip), vehicle: DMSO 101 % of control | dose: 200.0 mg/kg/injection, schedule: Q04DX002 (ip), vehicle: DMSO 101 % of control

COc1ccc(C(=S)NC(O)C(=O)c2ccc(Cl)cc2)cc1OC (stereo unspecified)
inactive: [14] 103 % of control | [15] 103 % of control

CCCCOC(=O)/C=C/C(=O)N1CCN(C(=O)/C=C/C(=O)OCCCC)C(C)C1 (stereo unspecified)
inactive: [1] 100 % of control | [2] 94 % of control | [3] 96 % of control

CCC(O)(CC)/C(C)=N/O
inactive: [14] 91 % of control | [15] 89 % of control | dose: 200.0 mg/kg/injection, schedule: Q01DX009 (ip), vehicle: saline with Tween-80 94 % of control
